pEC50: −log10 of the molar value. *1 amine or outer side, *2 acyl side, *3 side chain or, on linkers, in order; H or OH if unused. Where a SMILES comes first, the peptide text is derived from it. Side-chain parts run from the residue outwards. [ ]: non-standard residue; d: D form. The star is where a group is joined. C20 diacid = O=C(O)CCCCCCCCCCCCCCCCCCC(=O)*; γGlu = O=C(O)[C@H](CCC(=O)[*:2])N[*:1]; X34 = CCC(CC)(C(=O)*)c1ccc(Cl)c(Cl)c1; X20 = O=C(C1(c2ccc(Cl)cc2)CCOCC1)*; X36 = O=C(C1(c2ccc(Cl)cc2)CCCCC1)*; X39 = CCC(CC)(C(=O)*)c1ccc(Cl)cc1; X53 = CC(C)(C(=O)*)c1cc(F)cc(F)c1; AEEA = NCCOCCOCC(=O)O; Aib = CC(C)(N)C(=O)O; βAla = NCCC(=O)O
Key:
Type in all cases: cell-based
GIP receptor [1] = target: T1, GIP receptor (Homo sapiens, UniProt P48546); experiment: PathHunter β-arrestin assay, GIP receptor; set-up: host or cells: PathHunter CHO-K1 GIPR β-Arrestin Cell Line; conditions: β-arrestin-2 recruitment, PathHunter CHO-K1 GIPR β-Arrestin Cell Line, 90 min at 37° C.; normalized to GIP; read-out: GIPR β Arrestin EC50
T1 sequence (P48546 22-466): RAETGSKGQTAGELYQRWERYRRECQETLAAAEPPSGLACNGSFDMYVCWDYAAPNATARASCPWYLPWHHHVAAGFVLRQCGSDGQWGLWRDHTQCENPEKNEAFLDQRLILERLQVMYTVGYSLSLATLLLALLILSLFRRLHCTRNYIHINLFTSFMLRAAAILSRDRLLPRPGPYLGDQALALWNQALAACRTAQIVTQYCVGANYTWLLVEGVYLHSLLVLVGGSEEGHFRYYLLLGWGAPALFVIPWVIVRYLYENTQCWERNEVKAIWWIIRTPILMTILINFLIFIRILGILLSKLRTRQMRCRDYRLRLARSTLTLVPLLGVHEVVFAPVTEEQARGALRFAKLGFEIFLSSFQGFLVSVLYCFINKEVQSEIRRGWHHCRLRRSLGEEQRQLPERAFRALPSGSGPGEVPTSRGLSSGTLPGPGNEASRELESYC
Method: β-arrestin-2 recruitment for GLP-1 receptor or GIP receptor was measured using the DiscoverX PathHunter Detection Kit and PathHunter® CHO-K1 GLPIR β-Arrestin Cell Line or PathHunter® CHO-K1 GIPR β-Arrestin Cell Line, respectively). Briefly, cells were grown in Ham's F12 Nutrient Mix with 10% FBS and lifted with Cell dissociation buffer, Enzyme free, PBS based (ThermoFisher). Harvested cells were pelleted and resuspended in Assay Complete Cell Plating Reagent 2 and 5000 cells per well were plated in tissue culture treated 384-well small volume white assay plates. Plates were then incubated at 37° C. and 5% CO2 overnight. The media was then replaced with fresh Assay Complete Cell Plating Reagent 2. Cells were then treated with 10 nl compound in DMSO using an ECHO 550 acoustic dispenser (Labcyte) in a 20-point dose response format in duplicate for 90 min at 37° C. The assay was then completed according to the manufacturer's instructions. Luminescence was measured using a Perkin Elmer Envision plate reader. Raw data was normalized to the maximum signal from GLP-1 or GIP (high) and DMSO (low). Dose response curves were analyzed using GraphPad Prism 9.0.

GLP-1 receptor [2] = target: T2, GLP-1 receptor (Homo sapiens, UniProt P43220); experiment: PathHunter β-arrestin assay, GLP-1 receptor; set-up: host or cells: PathHunter CHO-K1 GLP1R β-Arrestin Cell Line; conditions: β-arrestin-2 recruitment, PathHunter CHO-K1 GLP1R β-Arrestin Cell Line, 90 min at 37° C.; normalized to GLP-1; read-out: GLP-1R β Arrestin EC50
T2 sequence (P43220 24-463): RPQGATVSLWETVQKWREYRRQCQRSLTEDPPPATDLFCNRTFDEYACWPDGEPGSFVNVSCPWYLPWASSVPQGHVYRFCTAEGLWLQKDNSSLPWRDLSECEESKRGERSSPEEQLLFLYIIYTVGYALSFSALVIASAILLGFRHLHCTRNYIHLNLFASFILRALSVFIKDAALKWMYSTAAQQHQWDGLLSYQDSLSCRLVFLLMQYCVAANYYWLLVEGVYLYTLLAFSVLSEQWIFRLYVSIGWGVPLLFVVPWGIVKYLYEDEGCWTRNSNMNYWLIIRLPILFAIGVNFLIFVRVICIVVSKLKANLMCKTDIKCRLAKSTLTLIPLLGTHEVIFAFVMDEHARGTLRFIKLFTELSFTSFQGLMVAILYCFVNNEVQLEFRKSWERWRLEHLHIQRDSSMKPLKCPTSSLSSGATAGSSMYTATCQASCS

GIP receptor [3] = target: T1, GIP receptor; experiment: HitHunter cAMP assay, GIP receptor; conditions: for pEC50: CHO cells stably expressing GIP receptor, cAMP accumulation, 30 min, read-out: EC50 GIP-1R; for Emax: CHO cells, cAMP, normalized to maximum signal from GIP (high) and DMSO (low), read-out: Emax GIP-1R
GLP-1 receptor [4] = target: T2, GLP-1 receptor; experiment: HitHunter cAMP assay, GLP-1 receptor; conditions: for pEC50: CHO cells stably expressing human GLP-1 receptor, cAMP accumulation, 30 min, read-out: EC50 GLP-1R; for Emax: CHO cells, cAMP, normalized to maximum signal from GLP-1 (high) and DMSO (low), read-out: Emax GLP-1R

| SMILES | pEC50 (GIP receptor [1]) | pEC50 (GLP-1 receptor [2]) | pEC50 (GIP receptor [3]) | Emax (GIP receptor [3]) [%] | pEC50 (GLP-1 receptor [4]) | Emax (GLP-1 receptor [4]) [%] |
| --- | --- | --- | --- | --- | --- | --- |
| CC[C@H](C)[C@H](NC(=O)[C@H](CC(C)C)NC(=O)[C@H](Cc1c[nH]c2ccccc12)NC(=O)[C@H](CCC(N)=O)NC(=O)[C@@H](NC(=O)[C@H](Cc1ccccc1)NC(=O)[C@H](C)NC(=O)[C@H](CCCCNC(=O)COCCOCCNC(=O)COCCOCCNC(=O)CC[C@H](NC(=O)CCCCCCCCCCCCCCCCCCC(=O)O)C(=O)O)NC(=O)[C@H](CCC(N)=O)NC(=O)[C@H](C)NC(=O)[C@@H](NC(=O)[C@H](CCCCN)NC(=O)[C@H](CC(=O)O)NC(=O)[C@H](CC(C)C)NC(=O)C(C)(C)NC(=O)[C@@H](NC(=O)[C@H](CO)NC(=O)[C@H](Cc1ccc(O)cc1)NC(=O)[C@H](CC(=O)O)NC(=O)[C@H](CO)NC(=O)[C@@H](NC(=O)[C@H](Cc1ccccc1)NC(=O)[C@@H](NC(=O)CNC(=O)[C@H](CCC(=O)O)NC(=O)CCNC(=O)C1(c2ccc(Cl)cc2)CCOCC1)[C@@H](C)O)[C@@H](C)O)[C@@H](C)CC)[C@@H](C)CC)C(C)C)C(=O)N[C@@H](C)C(=O)NCC(=O)NCC(=O)N1CCC[C@H]1C(=O)N[C@@H](CO)C(=O)N[C@@H](CO)C(=O)NCC(=O)N[C@@H](C)C(=O)N1CCC[C@H]1C(=O)N1CCC[C@H]1C(=O)N1CCC[C@H]1C(=O)N[C@@H](CO)C(N)=O [Compound 172] ({X20-βAla}-EGTFTSDYSI[Aib]LDKIAQK([AEEA-AEEA-γGlu-C20 diacid])AFVQWLIAGGPSSGAPPPS-NH2) | < 6.00 | < 6.00 | 8.00 to 9.00 | 109 | 8.00 to 9.00 | 89 |
| CC[C@H](C)[C@H](NC(=O)[C@H](CC(C)C)NC(=O)[C@H](Cc1c[nH]c2ccccc12)NC(=O)[C@H](CCC(N)=O)NC(=O)[C@@H](NC(=O)[C@H](Cc1ccccc1)NC(=O)[C@H](C)NC(=O)[C@H](CCCCNC(=O)COCCOCCNC(=O)COCCOCCNC(=O)CC[C@H](NC(=O)CCCCCCCCCCCCCCCCCCC(=O)O)C(=O)O)NC(=O)[C@H](CCC(N)=O)NC(=O)[C@H](C)NC(=O)[C@@H](NC(=O)[C@H](CCCCN)NC(=O)[C@H](CC(=O)O)NC(=O)[C@H](CC(C)C)NC(=O)C(C)(C)NC(=O)[C@@H](NC(=O)[C@H](CO)NC(=O)[C@H](Cc1ccc(O)cc1)NC(=O)[C@H](CC(=O)O)NC(=O)[C@H](CO)NC(=O)[C@@H](NC(=O)[C@H](Cc1ccccc1)NC(=O)[C@@H](NC(=O)CNC(=O)[C@H](CCC(=O)O)NC(=O)CCNC(=O)C(C)(C)c1cc(F)cc(F)c1)[C@@H](C)O)[C@@H](C)O)[C@@H](C)CC)[C@@H](C)CC)C(C)C)C(=O)N[C@@H](C)C(=O)NCC(=O)NCC(=O)N1CCC[C@H]1C(=O)N[C@@H](CO)C(=O)N[C@@H](CO)C(=O)NCC(=O)N[C@@H](C)C(=O)N1CCC[C@H]1C(=O)N1CCC[C@H]1C(=O)N1CCC[C@H]1C(=O)N[C@@H](CO)C(N)=O [Compound 173] ({X53-βAla}-EGTFTSDYSI[Aib]LDKIAQK([AEEA-AEEA-γGlu-C20 diacid])AFVQWLIAGGPSSGAPPPS-NH2) | < 6.00 | < 6.00 | 8.00 to 9.00 | 103 | > 10.00 | 98 |
| CC[C@H](C)[C@H](NC(=O)[C@H](CC(C)C)NC(=O)[C@H](Cc1c[nH]c2ccccc12)NC(=O)[C@H](CCC(N)=O)NC(=O)[C@@H](NC(=O)[C@H](Cc1ccccc1)NC(=O)[C@H](C)NC(=O)[C@H](CCCCNC(=O)COCCOCCNC(=O)COCCOCCNC(=O)CC[C@H](NC(=O)CCCCCCCCCCCCCCCCCCC(=O)O)C(=O)O)NC(=O)[C@H](CCC(N)=O)NC(=O)[C@H](C)NC(=O)[C@@H](NC(=O)[C@H](CCCCN)NC(=O)[C@H](CC(=O)O)NC(=O)[C@H](CC(C)C)NC(=O)C(C)(C)NC(=O)[C@@H](NC(=O)[C@H](CO)NC(=O)[C@H](Cc1ccc(O)cc1)NC(=O)[C@H](CC(=O)O)NC(=O)[C@H](CO)NC(=O)[C@@H](NC(=O)[C@H](Cc1ccccc1)NC(=O)[C@@H](NC(=O)CNC(=O)[C@H](CCC(=O)O)NC(=O)CCNC(=O)C1(c2ccc(Cl)cc2)CCCCC1)[C@@H](C)O)[C@@H](C)O)[C@@H](C)CC)[C@@H](C)CC)C(C)C)C(=O)N[C@@H](C)C(=O)NCC(=O)NCC(=O)N1CCC[C@H]1C(=O)N[C@@H](CO)C(=O)N[C@@H](CO)C(=O)NCC(=O)N[C@@H](C)C(=O)N1CCC[C@H]1C(=O)N1CCC[C@H]1C(=O)N1CCC[C@H]1C(=O)N[C@@H](CO)C(N)=O [Compound 174] ({X36-βAla}-EGTFTSDYSI[Aib]LDKIAQK([AEEA-AEEA-γGlu-C20 diacid])AFVQWLIAGGPSSGAPPPS-NH2) | < 6.00 | < 6.00 | 7.00 to 8.00 | 104 | 7.00 to 8.00 | 93 |
| CC[C@H](C)[C@H](NC(=O)[C@H](CC(C)C)NC(=O)[C@H](Cc1c[nH]c2ccccc12)NC(=O)[C@H](CCC(N)=O)NC(=O)[C@@H](NC(=O)[C@H](Cc1ccccc1)NC(=O)[C@H](C)NC(=O)[C@H](CCCCNC(=O)COCCOCCNC(=O)COCCOCCNC(=O)CC[C@H](NC(=O)CCCCCCCCCCCCCCCCCCC(=O)O)C(=O)O)NC(=O)[C@H](CCC(N)=O)NC(=O)[C@H](C)NC(=O)[C@@H](NC(=O)[C@H](CCCCN)NC(=O)[C@H](CC(=O)O)NC(=O)[C@H](CC(C)C)NC(=O)C(C)(C)NC(=O)[C@@H](NC(=O)[C@H](CO)NC(=O)[C@H](Cc1ccc(O)cc1)NC(=O)[C@H](CC(=O)O)NC(=O)[C@H](CO)NC(=O)[C@@H](NC(=O)[C@H](Cc1ccccc1)NC(=O)[C@@H](NC(=O)CNC(=O)[C@H](CCC(=O)O)NC(=O)CCNC(=O)C(CC)(CC)c1ccc(Cl)c(Cl)c1)[C@@H](C)O)[C@@H](C)O)[C@@H](C)CC)[C@@H](C)CC)C(C)C)C(=O)N[C@@H](C)C(=O)NCC(=O)NCC(=O)N1CCC[C@H]1C(=O)N[C@@H](CO)C(=O)N[C@@H](CO)C(=O)NCC(=O)N[C@@H](C)C(=O)N1CCC[C@H]1C(=O)N1CCC[C@H]1C(=O)N1CCC[C@H]1C(=O)N[C@@H](CO)C(N)=O [Compound 175] ({X34-βAla}-EGTFTSDYSI[Aib]LDKIAQK([AEEA-AEEA-γGlu-C20 diacid])AFVQWLIAGGPSSGAPPPS-NH2) | > 6.00 | < 6.00 | 8.00 to 9.00 | 110 | 8.00 to 9.00 | 94 |
| CC[C@H](C)[C@H](NC(=O)[C@H](CC(C)C)NC(=O)[C@H](Cc1c[nH]c2ccccc12)NC(=O)[C@H](CCC(N)=O)NC(=O)[C@@H](NC(=O)[C@H](Cc1ccccc1)NC(=O)[C@H](C)NC(=O)[C@H](CCCCNC(=O)COCCOCCNC(=O)COCCOCCNC(=O)CC[C@H](NC(=O)CCCCCCCCCCCCCCCCCCC(=O)O)C(=O)O)NC(=O)[C@H](CCC(N)=O)NC(=O)[C@H](C)NC(=O)[C@@H](NC(=O)[C@H](CCCCN)NC(=O)[C@H](CC(=O)O)NC(=O)[C@H](CC(C)C)NC(=O)C(C)(C)NC(=O)[C@@H](NC(=O)[C@H](CO)NC(=O)[C@H](Cc1ccc(O)cc1)NC(=O)[C@H](CC(=O)O)NC(=O)[C@H](CO)NC(=O)[C@@H](NC(=O)[C@H](Cc1ccccc1)NC(=O)[C@@H](NC(=O)CNC(=O)[C@H](CCC(=O)O)NC(=O)CCNC(=O)C(CC)(CC)c1ccc(Cl)cc1)[C@@H](C)O)[C@@H](C)O)[C@@H](C)CC)[C@@H](C)CC)C(C)C)C(=O)N[C@@H](C)C(=O)NCC(=O)NCC(=O)N1CCC[C@H]1C(=O)N[C@@H](CO)C(=O)N[C@@H](CO)C(=O)NCC(=O)N[C@@H](C)C(=O)N1CCC[C@H]1C(=O)N1CCC[C@H]1C(=O)N1CCC[C@H]1C(=O)N[C@@H](CO)C(N)=O [Compound 176] ({X39-βAla}-EGTFTSDYSI[Aib]LDKIAQK([AEEA-AEEA-γGlu-C20 diacid])AFVQWLIAGGPSSGAPPPS-NH2) | > 6.00 | < 6.00 | 8.00 to 9.00 | 110 | 8.00 to 9.00 | 110 |

Source: patent publication US12281149B2, “Modulators of G-protein coupled receptors” (priority 2021, dated 2025)
